Legend:
[1] = molecular target: T1, holocarboxylase synthetase (HLCS) (Homo sapiens, UniProt P50747); assay: Competition studies with biotin; type: biochemical; settings: for Mechanism of HLCS inhibition: competition studies with biotin; for apparent Vmax with inhibitor: 250 μM inhibitor, biotin varied 0-320 μM, n=4
T1 sequence (P50747 1-726): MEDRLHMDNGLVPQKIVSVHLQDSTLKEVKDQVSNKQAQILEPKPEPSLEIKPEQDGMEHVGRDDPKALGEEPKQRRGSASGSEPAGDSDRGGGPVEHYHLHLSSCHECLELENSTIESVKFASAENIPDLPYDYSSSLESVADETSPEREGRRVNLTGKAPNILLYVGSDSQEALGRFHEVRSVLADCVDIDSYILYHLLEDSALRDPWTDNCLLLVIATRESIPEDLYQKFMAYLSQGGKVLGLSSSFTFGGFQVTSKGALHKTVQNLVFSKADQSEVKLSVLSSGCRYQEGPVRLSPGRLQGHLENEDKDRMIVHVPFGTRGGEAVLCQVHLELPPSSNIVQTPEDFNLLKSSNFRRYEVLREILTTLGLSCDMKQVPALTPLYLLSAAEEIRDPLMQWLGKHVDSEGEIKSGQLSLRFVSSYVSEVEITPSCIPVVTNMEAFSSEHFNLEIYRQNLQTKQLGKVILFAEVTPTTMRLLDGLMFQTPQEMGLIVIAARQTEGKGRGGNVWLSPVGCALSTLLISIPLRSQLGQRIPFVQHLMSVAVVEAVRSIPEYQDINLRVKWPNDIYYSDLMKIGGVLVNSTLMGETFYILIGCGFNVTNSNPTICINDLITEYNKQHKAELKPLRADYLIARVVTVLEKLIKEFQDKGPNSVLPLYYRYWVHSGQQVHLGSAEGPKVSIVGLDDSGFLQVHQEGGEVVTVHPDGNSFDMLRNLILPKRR

[2] = molecular target: T1, holocarboxylase synthetase (HLCS); assay: Inhibition of HLCS-catalysed biotinylation of recombinant p67; type: biochemical; settings: data not shown

Row | SMILES | Mechanism of HLCS inhibition [1] | Mechanism of HLCS inhibition ([1]; listed as Biotinol-AMP) | HLCS inhibition (negative control, in words) [2] | apparent Vmax with inhibitor [1] | Mechanism of HLCS inhibition ([1]; listed as β-HydroxyP) | Mechanism of HLCS inhibition ([1]; listed as β-KetoP)
1 | Nc1ncnc2c1ncn2[C@@H]1O[C@H](COP(=O)(O)OCCCCC[C@@H]2SC[C@@H]3NC(=O)N[C@@H]32)[C@@H](O)[C@H]1O [biotinol-5'-AMP, biotinol-5′-AMP, reference compound] | mixed | mixed inhibitor | – | – | – | –
2 | COP(=O)(O)CC(=O)CCCC[C@@H]1SC[C@@H]2NC(=O)N[C@@H]21 [compound 3] | – | – | did not inhibit HLCS | – | – | –
3 | N.Nc1ncnc2c1ncn2[C@@H]1O[C@H](COP(=O)(O)CC(O)CCCC[C@@H]2SC[C@@H]3NC(=O)N[C@@H]32)[C@@H](O)[C@H]1O (stereo partly drawn) [β-hydroxyP, biotin β-hydroxyphosphonate-5′-AMP] | competitive | – | – | 20.6±1.8 pmol biotinylated p67/(nmol HLCS x s) | competitive inhibitor | –
4 | N.Nc1ncnc2c1ncn2[C@@H]1O[C@H](COP(=O)(O)CC(=O)CCCC[C@@H]2SC[C@@H]3NC(=O)N[C@@H]32)[C@@H](O)[C@H]1O [β-ketoP, biotin β-ketophosphonate-5′-AMP] | competitive | – | – | 31.5±1.6 pmol biotinylated p67/(nmol HLCS x s) | – | competitive inhibitor
